Results taken from ChEMBL document CHEMBL1135342, “Synthesis and evaluation of thymidine-5'-O-monophosphate analogues as inhibitors of Mycobacterium tuberculosis thymidylate kinase” (Bioorg Med Chem Lett, 2002).

Molecular target: T1, Thymidylate kinase (Mycobacterium tuberculosis) (UniProt P9WKE1)
T1 sequence (whole entry): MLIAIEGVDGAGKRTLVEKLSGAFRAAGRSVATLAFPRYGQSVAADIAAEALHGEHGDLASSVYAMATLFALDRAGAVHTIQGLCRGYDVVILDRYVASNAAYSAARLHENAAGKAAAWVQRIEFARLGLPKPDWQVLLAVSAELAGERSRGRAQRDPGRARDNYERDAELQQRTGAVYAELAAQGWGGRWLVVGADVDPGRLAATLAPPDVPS
Experiment: Enzyme Kinetic constant was determined in the presence of Mycobacterium tuberculosis thymidine monophosphate kinase

SMILES | Vm (uM min-1 (mg of protein)-1)
O=c1[nH]c(=O)n([C@H]2C[C@H](O)[C@@H](COP(=O)(O)O)O2)cc1I | 7.5
O=c1[nH]c(=O)n([C@H]2C[C@H](O)[C@@H](COP(=O)(O)O)O2)cc1F | 4.7
Cc1cn([C@H]2C[C@H](F)[C@@H](COP(=O)(O)O)O2)c(=O)[nH]c1=O | 0.11
Cc1cn([C@H]2C[C@H](O)[C@@H](COP(=O)(O)O)O2)c(=O)[nH]c1=O | 10.6
O=c1ccn([C@H]2C[C@H](O)[C@@H](COP(=O)(O)O)O2)c(=O)[nH]1 | 3.5
Cc1cn(-c2ccc(COP(=O)(O)O)o2)c(=O)[nH]c1=O | 0.16
O=c1[nH]c(=O)n([C@H]2C[C@H](O)[C@@H](COP(=O)(O)O)O2)cc1Br | 9.8
